Key:
Assay in all cases: relative viability (nuclei count vs DMSO), 5 days (fraction); higher = more cells survive
Ibrutinib + Pictilisib = compound: C=CC(=O)N1CCC[C@@H](n2nc(-c3ccc(Oc4ccccc4)cc3)c3c(N)ncnc32)C1 [Ibrutinib] + CS(=O)(=O)N1CCN(Cc2cc3nc(-c4cccc5[nH]ncc45)nc(N4CCOCC4)c3s2)CC1 [Pictilisib] (partner 1 µM)
Summary of the method: (§1)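 Each reported value is a median over duplicate plates. It expresses relative viability: treated-well nuclei count divided by vehicle-well nuclei count. Lung cancer cell lines in 1536-well plates were dosed by pin tool a day after seeding, alone with one drug or with a fixed anchor-drug dose plus five library-drug doses (not always all listed) in √10 steps, and nuclei were counted after 5 days.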

Ibrutinib + Crizotinib = compound: C=CC(=O)N1CCC[C@@H](n2nc(-c3ccc(Oc4ccccc4)cc3)c3c(N)ncnc32)C1 [Ibrutinib] + C[C@@H](Oc1cc(-c2cnn(C3CCNCC3)c2)cnc1N)c1c(Cl)ccc(F)c1Cl [Crizotinib] (partner 1 µM)
Summary of the method: as §1

Ibrutinib + Phenformin = compound: C=CC(=O)N1CCC[C@@H](n2nc(-c3ccc(Oc4ccccc4)cc3)c3c(N)ncnc32)C1 [Ibrutinib] + N=C(N)NC(=N)NCCc1ccccc1 [Phenformin] (partner 250 µM)
Summary of the method: as §1

BMX-IN-1 + Foretinib = compound: C=CC(=O)Nc1cc(-n2c(=O)ccc3cnc4ccc(-c5ccc(NS(C)(=O)=O)cc5)cc4c32)ccc1C [BMX-IN-1] + COc1cc2c(Oc3ccc(NC(=O)C4(C(=O)Nc5ccc(F)cc5)CC4)cc3F)ccnc2cc1OCCCN1CCOCC1 [Foretinib] (partner 0.25 µM)
Summary of the method: as §1

Cell Line: SK-MES-1
- relative viability (Ibrutinib + Pictilisib; first compound 0.005 µM): 0.307
- relative viability (Ibrutinib + Pictilisib; first compound 0.01581 µM): 0.274
- relative viability (Ibrutinib + Pictilisib; first compound 0.05 µM): 0.254
- relative viability (Ibrutinib + Pictilisib; first compound 0.1581 µM): 0.342
- relative viability (Ibrutinib + Pictilisib; first compound 0.5 µM): 0.198
- relative viability (Ibrutinib + Crizotinib; first compound 0.005 µM): 0.984
- relative viability (Ibrutinib + Crizotinib; first compound 0.01581 µM): 0.907
- relative viability (Ibrutinib + Crizotinib; first compound 0.05 µM): 1.02
- relative viability (Ibrutinib + Crizotinib; first compound 0.5 µM): 0.555
- relative viability (Ibrutinib + Phenformin; first compound 0.005 µM): 0.733
- relative viability (Ibrutinib + Phenformin; first compound 0.01581 µM): 0.629
- relative viability (Ibrutinib + Phenformin; first compound 0.05 µM): 0.638
- relative viability (Ibrutinib + Phenformin; first compound 0.1581 µM): 0.704
- relative viability (Ibrutinib + Phenformin; first compound 0.5 µM): 0.501
- relative viability (BMX-IN-1 + Foretinib; first compound 0.02 µM): 0.877
- relative viability (BMX-IN-1 + Foretinib; first compound 0.2 µM): 1.02
- relative viability (BMX-IN-1 + Foretinib; first compound 0.6325 µM): 0.967
- relative viability (BMX-IN-1 + Foretinib; first compound 2 µM): 0.728
